According to US6358885B1, “Substituted phenylheterocyclic herbicides” (Mississippi State University, priority 1992, dated 2002):

Legend:
Experiment in all cases: Test F preemergence/postemergence greenhouse plant response rating 0 to 100
[1] = test system: speedwell; type: in vivo, Veronica persica; details: POSTEMERGENCE, 0 to 100 scale
From the text: (§1) Compounds evaluated in this test were formulated in a non-phytoxic solvent and applied to the soil surface before plant seedlings emerged (preemergence application) and to plants that were in the one-to-four leaf stage (postemergence application). A sandy loam soil was used for the preemergence test while a mixture of sandy loam soil and greenhouse potting mix in a 60:40 ratio was used for the postemergence test. Test compounds were applied within approximately one day after planting seeds for the preemergence test. Plantings of these crops and weed species were adjusted to produce plants of appropriate size for the postemergence test. All plant species were grown using normal greenhouse practices. Crop and weed species include winter barley (Hordeum vulgare cv. ‘Igri’), blackgrass (Alopecurus myosuroides), chickweed (Stellaria media), downy brome (Bromus tectorum), field violet (Viola arvensis), galium (Galium aparine), green foxtail (Setaria viridis), kochia (Kochia scoparia), lambsquarters (Chenopodium album), speedwell (Veronica persica), rape (Brassica napus), ryegrass (Lolium multiflorum), sugar beet (Beta vulgaris cv. ‘USl’), sunflower (Helianthus annuus cv. ‘Russian Giant’), spring wheat (Triticum aestivum cv. ‘ERA’), winter wheat (Triticum aestivum cv. ‘Talent’), wild buckwheat (Polygonum convolvulus), wild mustard (Sinapis arvensis), wild oat (Avena fatua), and wild radish (Raphanus raphanistrum). Blackgrass, galium and wild oat were treated at two growth stages. […] Treated plants and untreated controls were maintained in a greenhouse for approximately 21 to 28 days, after which all treated plants were compared to untreated controls and visually evaluated. […] A dash response (-) means no test result.

[2] = test system: rape; type: in vivo, Brassica napus; details: POSTEMERGENCE, 0 to 100 scale
From the text: as §1

[3] = test system: downy brome; type: in vivo, Bromus tectorum; details: POSTEMERGENCE, 0 to 100 scale
From the text: as §1

[4] = test system: ryegrass; type: in vivo, Lolium multiflorum; details: POSTEMERGENCE, 0 to 100 scale
From the text: as §1

[5] = test system: wild oat; type: in vivo, Avena fatua; details: POSTEMERGENCE, 0 to 100 scale; for Wild oat (1) plant response rating: stage (1) two to three leaves; for Wild oat (2) plant response rating: stage (2) approximately four leaves or initial tillering
From the text: as §1

[6] = test system: field violet; type: in vivo, Viola arvensis; details: POSTEMERGENCE, 0 to 100 scale
From the text: as §1

[7] = test system: chickweed; type: in vivo, Stellaria media; details: POSTEMERGENCE, 0 to 100 scale
From the text: as §1

[8] = test system: lambsquarters; type: in vivo, Chenopodium album; details: POSTEMERGENCE, 0 to 100 scale
From the text: as §1

[9] = test system: wild buckwheat; type: in vivo, Polygonum convolvulus; details: POSTEMERGENCE, 0 to 100 scale
From the text: as §1

[10] = test system: spring wheat; type: in vivo, Triticum aestivum cv. ‘ERA’; details: POSTEMERGENCE, 0 to 100 scale
From the text: as §1

[11] = test system: winter wheat; type: in vivo, Triticum aestivum cv. ‘Talent’; details: POSTEMERGENCE, 0 to 100 scale
From the text: as §1

[12] = test system: galium; type: in vivo, Galium aparine; details: POSTEMERGENCE, 0 to 100 scale; for Galium (1) plant response rating: stage (1) two to three leaves; for Galium (2) plant response rating: stage (2) approximately four leaves or initial tillering
From the text: as §1

[13] = test system: winter barley; type: in vivo, Hordeum vulgare cv. ‘Igri’; details: POSTEMERGENCE, 0 to 100 scale
From the text: as §1

[14] = test system: green foxtail; type: in vivo, Setaria viridis; details: POSTEMERGENCE, 0 to 100 scale
From the text: as §1

Fc1cc(Cl)c(OCCCl)cc1-c1nn2c(c1Cl)CCCC2 [Compound 49]
30: Wild oat (1) plant response rating ([5]; Rate 32 g/ha) | Galium (1) plant response rating ([12]; Rate 4 g/ha) | Galium (2) plant response rating ([12]; Rate 4 g/ha) | Galium (2) plant response rating ([12]; Rate 8 g/ha)
10: Downy brome plant response rating ([3]; Rate 16 g/ha) | Downy brome plant response rating ([3]; Rate 32 g/ha) | Wild oat (1) plant response rating ([5]; Rate 4 g/ha) | Wheat (Spring) plant response rating ([10]; Rate 16 g/ha) | Wheat (Winter) plant response rating ([11]; Rate 4 g/ha) | Wheat (Winter) plant response rating ([11]; Rate 8 g/ha) | Wheat (Winter) plant response rating ([11]; Rate 16 g/ha) | Winter Barley plant response rating ([13]; Rate 8 g/ha) | Winter Barley plant response rating ([13]; Rate 16 g/ha)
60: Persn Speedwell plant response rating ([1]; Rate 8 g/ha) | Field violet plant response rating ([6]; Rate 8 g/ha) | Field violet plant response rating ([6]; Rate 16 g/ha) | Chickweed plant response rating ([7]; Rate 32 g/ha) | Green foxtail plant response rating ([14]; Rate 32 g/ha)
50: Persn Speedwell plant response rating ([1]; Rate 2 g/ha) | Persn Speedwell plant response rating ([1]; Rate 4 g/ha) | Chickweed plant response rating ([7]; Rate 16 g/ha) | Lambsquarters plant response rating ([8]; Rate 4 g/ha) | Lambsquarters plant response rating ([8]; Rate 16 g/ha) | Green foxtail plant response rating ([14]; Rate 16 g/ha)
20: Rape plant response rating ([2]; Rate 32 g/ha) | Ryegrass plant response rating ([4]; Rate 32 g/ha) | Wild oat (1) plant response rating ([5]; Rate 8 g/ha) | Wild oat (1) plant response rating ([5]; Rate 16 g/ha) | Wild oat (2) plant response rating ([5]; Rate 32 g/ha) | Chickweed plant response rating ([7]; Rate 8 g/ha) | Wheat (Spring) plant response rating ([10]; Rate 32 g/ha) | Wheat (Winter) plant response rating ([11]; Rate 32 g/ha) | Winter Barley plant response rating ([13]; Rate 32 g/ha) | Green foxtail plant response rating ([14]; Rate 8 g/ha)
70: Lambsquarters plant response rating ([8]; Rate 32 g/ha)
35: Galium (1) plant response rating ([12]; Rate 8 g/ha)
100: Persn Speedwell plant response rating ([1]; Rate 16 g/ha) | Persn Speedwell plant response rating ([1]; Rate 32 g/ha) | Field violet plant response rating ([6]; Rate 32 g/ha) | Wild buckwheat plant response rating ([9]; Rate 2 g/ha) | Wild buckwheat plant response rating ([9]; Rate 4 g/ha) | Wild buckwheat plant response rating ([9]; Rate 8 g/ha) | Wild buckwheat plant response rating ([9]; Rate 16 g/ha) | Wild buckwheat plant response rating ([9]; Rate 32 g/ha)
40: Galium (1) plant response rating ([12]; Rate 16 g/ha) | Galium (2) plant response rating ([12]; Rate 16 g/ha) | Galium (1) plant response rating ([12]; Rate 32 g/ha) | Galium (2) plant response rating ([12]; Rate 32 g/ha)
0: Rape plant response rating ([2]; Rate 2 g/ha) | Rape plant response rating ([2]; Rate 4 g/ha) | Rape plant response rating ([2]; Rate 8 g/ha) | Rape plant response rating ([2]; Rate 16 g/ha) | Downy brome plant response rating ([3]; Rate 2 g/ha) | Downy brome plant response rating ([3]; Rate 4 g/ha) | Downy brome plant response rating ([3]; Rate 8 g/ha) | Ryegrass plant response rating ([4]; Rate 2 g/ha) | Ryegrass plant response rating ([4]; Rate 4 g/ha) | Ryegrass plant response rating ([4]; Rate 8 g/ha) | Ryegrass plant response rating ([4]; Rate 16 g/ha) | Wild oat (1) plant response rating ([5]; Rate 2 g/ha) | Wild oat (2) plant response rating ([5]; Rate 2 g/ha) | Wild oat (2) plant response rating ([5]; Rate 4 g/ha) | Wild oat (2) plant response rating ([5]; Rate 8 g/ha) | Wild oat (2) plant response rating ([5]; Rate 16 g/ha) | Chickweed plant response rating ([7]; Rate 2 g/ha) | Chickweed plant response rating ([7]; Rate 4 g/ha) | Wheat (Spring) plant response rating ([10]; Rate 2 g/ha) | Wheat (Spring) plant response rating ([10]; Rate 4 g/ha) | Wheat (Spring) plant response rating ([10]; Rate 8 g/ha) | Wheat (Winter) plant response rating ([11]; Rate 2 g/ha) | Galium (1) plant response rating ([12]; Rate 2 g/ha) | Galium (2) plant response rating ([12]; Rate 2 g/ha) | Winter Barley plant response rating ([13]; Rate 2 g/ha) | Winter Barley plant response rating ([13]; Rate 4 g/ha) | Green foxtail plant response rating ([14]; Rate 2 g/ha) | Green foxtail plant response rating ([14]; Rate 4 g/ha)

C#CC(C)Oc1cc(-c2nn3c(c2Cl)CCCC3)c(F)cc1Cl (centres unmarked) [Compound 36]
10: Ryegrass plant response rating ([4]; Rate 8 g/ha) | Wild oat (1) plant response rating ([5]; Rate 4 g/ha) | Wild oat (2) plant response rating ([5]; Rate 4 g/ha) | Wild oat (2) plant response rating ([5]; Rate 8 g/ha)
50: Chickweed plant response rating ([7]; Rate 4 g/ha) | Lambsquarters plant response rating ([8]; Rate 4 g/ha) | Lambsquarters plant response rating ([8]; Rate 8 g/ha) | Wheat (Winter) plant response rating ([11]; Rate 32 g/ha) | Galium (1) plant response rating ([12]; Rate 8 g/ha) | Galium (1) plant response rating ([12]; Rate 16 g/ha) | Green foxtail plant response rating ([14]; Rate 16 g/ha) | Green foxtail plant response rating ([14]; Rate 32 g/ha)
25: Winter Barley plant response rating ([13]; Rate 32 g/ha)
20: Ryegrass plant response rating ([4]; Rate 16 g/ha) | Wild oat (1) plant response rating ([5]; Rate 8 g/ha) | Wild oat (1) plant response rating ([5]; Rate 16 g/ha) | Wild oat (2) plant response rating ([5]; Rate 16 g/ha) | Wild oat (1) plant response rating ([5]; Rate 32 g/ha) | Wild oat (2) plant response rating ([5]; Rate 32 g/ha) | Wheat (Spring) plant response rating ([10]; Rate 32 g/ha) | Wheat (Winter) plant response rating ([11]; Rate 4 g/ha) | Wheat (Winter) plant response rating ([11]; Rate 8 g/ha) | Wheat (Winter) plant response rating ([11]; Rate 16 g/ha) | Galium (1) plant response rating ([12]; Rate 4 g/ha) | Winter Barley plant response rating ([13]; Rate 4 g/ha) | Winter Barley plant response rating ([13]; Rate 8 g/ha) | Winter Barley plant response rating ([13]; Rate 16 g/ha)
100: Persn Speedwell plant response rating ([1]; Rate 4 g/ha) | Persn Speedwell plant response rating ([1]; Rate 8 g/ha) | Persn Speedwell plant response rating ([1]; Rate 16 g/ha) | Persn Speedwell plant response rating ([1]; Rate 32 g/ha) | Rape plant response rating ([2]; Rate 16 g/ha) | Rape plant response rating ([2]; Rate 32 g/ha) | Field violet plant response rating ([6]; Rate 4 g/ha) | Field violet plant response rating ([6]; Rate 8 g/ha) | Field violet plant response rating ([6]; Rate 16 g/ha) | Field violet plant response rating ([6]; Rate 32 g/ha) | Chickweed plant response rating ([7]; Rate 8 g/ha) | Chickweed plant response rating ([7]; Rate 16 g/ha) | Chickweed plant response rating ([7]; Rate 32 g/ha) | Wild buckwheat plant response rating ([9]; Rate 16 g/ha) | Wild buckwheat plant response rating ([9]; Rate 32 g/ha)
15: Wheat (Spring) plant response rating ([10]; Rate 4 g/ha) | Wheat (Spring) plant response rating ([10]; Rate 8 g/ha) | Wheat (Spring) plant response rating ([10]; Rate 16 g/ha)
60: Lambsquarters plant response rating ([8]; Rate 16 g/ha) | Lambsquarters plant response rating ([8]; Rate 32 g/ha) | Galium (2) plant response rating ([12]; Rate 8 g/ha) | Galium (2) plant response rating ([12]; Rate 16 g/ha) | Galium (1) plant response rating ([12]; Rate 32 g/ha)
5: Downy brome plant response rating ([3]; Rate 32 g/ha)
40: Rape plant response rating ([2]; Rate 8 g/ha) | Galium (2) plant response rating ([12]; Rate 4 g/ha) | Green foxtail plant response rating ([14]; Rate 8 g/ha)
35: Ryegrass plant response rating ([4]; Rate 32 g/ha)
70: Galium (2) plant response rating ([12]; Rate 32 g/ha)
0: Downy brome plant response rating ([3]; Rate 4 g/ha) | Downy brome plant response rating ([3]; Rate 8 g/ha) | Downy brome plant response rating ([3]; Rate 16 g/ha) | Ryegrass plant response rating ([4]; Rate 4 g/ha) | Green foxtail plant response rating ([14]; Rate 4 g/ha)
